Where “and” joins values, the source holds several entries; their conditions need not be identical. Equal entries are not always repeated.
Legend:
[1] = DPPH radical-scavenging activity assay; conditions: compounds and controls at 100 µM in EtOH, 30 min, 517 nm; mean ± SD
Method: The scavenging activity of phenolic compounds against DPPH radicals was assessed using Kokanova-Nedialkova and Nedialkov methods, with some modifications. Briefly, 300 µL of each compound in EtOH (100 µM) was mixed with 300 µL of DPPH ethanol solution (100 µM). The reaction mixture was thoroughly vortexed and left in the dark at room temperature for 30 min. The absorbance of the mixture was measured at 517 nm. The following equation calculates the ability to scavenge DPPH radicals: %DPPH radical scavenging activity=Abscontrol−Abssample/Abscontrol×100, where Abscontrol is the absorbance of the DPPH radical in EtOH, and Abssample is the absorbance of the DPPH radical solution mixed with a sample.
Positive controls were vitamin C (100 µM) and Trolox (100 µM).

[2] = target: α-glucosidase; test: Anti-α-glucosidase activity assay (LC-MS, p-nitrophenyl-α-D-glucopyranoside substrate); assay type: biochemical; conditions: five concentrations 1000-62.5 µM, NA = the compound is not active; for IC50: read-out: α-Glucosidase Inhibitory Activity (IC50 ± SD)
Method: The α-Glucosidase inhibitory activity was determined by LC-MS using p-nitrophenyl-α-D-glucopyranoside as the substrate, as described by Kokanova-Nedialkova et al.. The assay mixture (160 µL) was prepared accordingly to Kang et al. with some modifications. An aliquot of 20 µL of a sample in phosphate buffer (pH 6.8) containing 10% DMSO (or phosphate buffer containing 10% DMSO as a control), 100 µL phosphate buffer (pH 6.8), and 20 µL enzyme solution (0.2 U/mL α-glucosidase in phosphate buffer) were mixed and incubated at 37 °C for 15 min. Then, 20 µL of substrate solution (2.5 mM p-nitrophenyl-α-D-glucopyranoside, prepared in the same buffer) was added. The reaction was processed at 37 °C for 15 min and stopped by adding 840 µL acetonitrile (AcCN). The supernatant was then used for LC-MS analysis after centrifugation at 12,000 rpm for 10 min. The amount of p-nitrophenol released from p-nitrophenyl-α-D-glucopyranoside was quantified using liquid chromatography-[…] (LC-MS). The inhibitory rates (%) were calculated according to the formula: % α−Glucosidase inhibitory activity=Aк−Asample/Aк×100, where Aк is the area of the p-nitrophenol peak in the control, and Asample is the area of the p-nitrophenol peak in the sample.

[3] = ABTS radical-scavenging activity assay; conditions: compounds and controls at 100 µM in EtOH, 7 min, 734 nm, mean ± SD
Method: For ABTS assay, the procedure followed the method of Kokanova-Nedialkova and Nedialkov with some modifications. The stock solutions included 7 mM ABTS and 2.4 mM potassium persulfate. The working solution was then prepared by mixing the two stock solutions in equal quantities and allowing them to react for 12–14 h at room temperature in the dark. The solution was then diluted by mixing 1 mL of the ABTS solution with 30 mL of ethanol. A fresh ABTS solution was prepared for each assay. Furthermore, 300 µL of each compound in EtOH (100 µM) was allowed to react with 1 mL of the ABTS solution, and the absorbance was taken at 734 nm after 7 min using a spectrophotometer. The ABTS scavenging capacity of the compound was calculated as: %ABTS radical scavenging activity=Abscontrol−Abssample/Abscontrol×100 where Abscontrol is the absorbance of the ABTS radical in ethanol, and Abssample is the absorbance of an ABTS radical solution mixed with a sample.
Vitamin C (100 µM) and Trolox (100 µM) were used as positive controls.

[4] = target: T1, lipase from porcine pancreas, Type II (Sus scrofa, UniProt P00591); test: Assay for modulation of lipase activity (LC-MS, p-nitrophenyl laurate substrate); assay type: biochemical; conditions: for Fold increase of lipase activity compared to the control: 200 µM; for Effect on lipase activity (in words): tested at 200-12.5 µM
T1 construct: lipase from porcine pancreas, Type II; purchased Sigma-Aldrich L3126; host or cells: porcine pancreas (tissue-derived)
T1 sequence (P00591 1-450): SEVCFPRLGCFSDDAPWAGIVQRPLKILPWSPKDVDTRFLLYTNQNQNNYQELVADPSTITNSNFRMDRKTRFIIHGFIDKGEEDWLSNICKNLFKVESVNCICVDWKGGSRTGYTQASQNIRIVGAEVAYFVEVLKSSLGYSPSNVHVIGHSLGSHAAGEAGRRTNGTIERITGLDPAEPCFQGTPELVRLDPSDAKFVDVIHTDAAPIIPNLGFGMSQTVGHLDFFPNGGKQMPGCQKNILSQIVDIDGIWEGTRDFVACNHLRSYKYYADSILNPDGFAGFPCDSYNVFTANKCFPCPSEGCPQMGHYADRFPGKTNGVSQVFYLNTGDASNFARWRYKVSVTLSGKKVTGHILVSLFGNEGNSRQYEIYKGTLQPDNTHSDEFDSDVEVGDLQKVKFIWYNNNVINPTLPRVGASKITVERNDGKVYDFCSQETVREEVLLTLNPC
Method: This assay was adapted from previous reports for the determination of anti-lipase and pro-lipase activity by LC-MS [14]. Briefly, lipase from porcine pancreas, Type II (Sigma-Aldrich, St. Louis, MA, USA, product L3126), was dissolved in ultra-pure water at a 5 mg/mL concentration. The supernatant was then used after centrifugation at 15,000 rpm for 10 min. The assay buffer was 100 mM Tris buffer (pH 8.2), and p-nitrophenyl laurate was used as the substrate. The substrate stock was 2 mg p-nitrophenyl laurate dissolved in 1 mL isopropanol and 4 mL 5 mM sodium acetate (pH 5.0) containing 1% Triton X-100 (Fisher Scientific, Bridgewater, NJ, USA). The mixture was heated to facilitate dissolution, thoroughly mixed, and then cooled to room temperature. The assay mixture (1 mL) contained 20 µL of a sample in DMSO (or DMSO as a control), 860 µL of Tris buffer (pH 8.2), and 30 µL of enzyme solution. The mixture was combined, shaken, and incubated at 37 °C for 15 min. Then, 90 µL of substrate solution was added and shaken again. The reaction was processed at 37 °C for 2 h and stopped by adding 800 µL CH3CN to 200 µL of the assay mixture. The supernatant was then used for LC-MS analysis after centrifugation at 15,000 rpm for 10 min. The amount of p-nitrophenol released from p-nitrophenyl laurate was quantified using LC-MS. Lipase inhibitory activity (%) was calculated according to the formula: % Lipase inhibitory activity=Aк−Asample/Aк×100, where Aк is the area of the p-nitrophenol peak in the control, and Asample is the area of the p-nitrophenol peak in the sample.
Pro-lipase activity (%) was calculated according to the formula: % Prolipase activity=Asample−Ak/Aк×100, where Aк is the area of the p-nitrophenol peak in the control, and Asample is the area of the p-nitrophenol peak in the sample.

| SMILES | DPPH % (radical-scavenging activity) [1] | IC50 [2] | ABTS % (radical-scavenging activity) [3] | Fold increase of lipase activity compared to the control [4] | Effect on lipase activity (in words) [4] | α-Glucosidase Inhibitory Activity (IC50 ± SD) [2] | ABTS % (radical-scavenging activity) ([3]; listed as Vitamin C) |
| --- | --- | --- | --- | --- | --- | --- | --- |
| O=c1c(OC2OC(CO)C(O)C(O)C2O)c(-c2cc(O)c(O)c(O)c2)oc2cc(O)cc(O)c12 (centres unmarked) [HC3, myricetin-3-O-galactoside] | 82.70% and 82.70 ± 0.34% | 206 ± 13 µM | 96.04% and 96.04 ± 0.37% | fivefold | do not inhibit lipase activity |  |  |
| O=C(C=Cc1ccc(O)cc1)OC1CC(O)(C(=O)O)CC(O)C1O (centres unmarked) [HC1, coumaroylquinic acid] | 18.95% and 18.95 ± 0.36% | 44 ± 5 µM | 22.12% and 22.12 ± 0.63% |  | do not inhibit lipase activity |  |  |
| Cc1c(C)c2c(c(C)c1O)CCC(C)(C(=O)O)O2 (centres unmarked) [Trolox, reference compound] | 88.33 ± 0.33% |  | 94.16% and 94.16 ± 0.32% |  |  |  |  |
| COC(=O)C1(O)CC(O)C(O)C(OC(=O)C=Cc2ccc(O)c(O)c2)C1 (centres unmarked) [HC5, methyl ester of chlorogenic acid] | 84.57% and 84.57 ± 0.27% |  | 71.27% and 71.27 ± 0.08% |  | do not inhibit lipase activity | did not exhibit measurable inhibitory activity |  |
| O=c1c(OC2OC(CO)C(O)C(O)C2O)c(-c2cc(O)c(O)c(O)c2)oc2cc(O)cc(O)c12 (centres unmarked) [HC2, myricetin-3-O-glucoside] | 84.32% and 84.32 ± 0.23% |  | 97.23% and 97.23 ± 0.45% | fivefold | do not inhibit lipase activity | did not exhibit measurable inhibitory activity |  |
| CC(=O)OC1C(Oc2cc(O)cc(O)c2C(=O)c2ccccc2)OC(CO)C(O)C1O [HC4, 4,6-Dihydroxy Benzophenone-2-O-β-D-2″-Acetylglucopyranoside] | 14.63% and 14.63 ± 0.50% |  | 70.20% and 70.20 ± 0.23% |  | did not show any significant effect on lipase activity | did not exhibit measurable inhibitory activity |  |
| O=C1O[C@H]([C@@H](O)CO)C(O)=C1O [Vit C, reference compound] | 59.44 ± 0.42% |  | 66.21 ± 0.45% |  |  |  | 66.21% |
| CC(C)C1CC(OC2OC(COC(=O)C=Cc3ccc(O)cc3)C(O)C(O)C2O)CC(=O)O1 [HC6, 4-O-{6-[(2E)-p-Hydroxycinnamoyl]-β-D-Glucopyranosyl}-6-isopropyl-tetrahydro-2H-pyran-2-one] | 15.93% and 15.93 ± 0.33% | 371 ± 9 µM | 25.50% and 25.50 ± 0.12% |  | do not inhibit lipase activity |  |  |
| COC(=O)CC(CC(O)C(C)C)O[C@@H]1O[C@H](COC(=O)/C=C/c2ccc(O)cc2)[C@@H](O)[C@H](O)[C@H]1O (stereo partly drawn) [HC7, Methyl 3-O-{6-[(2E)-p-hydroxycinnamoyl]-β-glucopyranosyl}-6-methyl-5-hydroxyheptanoate] | 11.48% and 11.48 ± 0.21% |  | 26.88% and 26.88 ± 0.33% |  | did not show any significant effect on lipase activity | did not exhibit measurable inhibitory activity |  |

Source: PMC12565843, “Phenolic Compounds from Hypericum cerastoides (Spach) N. Robson: Dereplication via UHPLC-HRMS/MS, Isolation, Identification, and Preliminary Biological Evaluation Focusing on Radical-Scavenging, Anti-α-Glucosidase, and Pro-Lipase Activities” (Metabolites, 2025)
